Drawing on US6342498B1, “Arylpiperazines as serotonin reuptake inhibitors and 5-HT1Dα antagonists” (Eli Lilly and Company, priority 1997, dated 2002), this text covers melting point for 14 compounds.

Where a name gives a salt, the structure may show the parent alone.

`COc1ccccc1N1CCN(CCCCN2CC=C(c3c[nH]c4cc(Cl)ccc34)CC2)CC1`: the melting point (usually the temperature, or range, at which the solid turns liquid) fell in the range of 131 to 133 °C.

`COc1ccccc1N1CCN(CCCCCN2CC=C(c3c[nH]c4cc(F)ccc34)CC2)CC1` [Example 16, 1-(2-methoxyphenyl)-4-(5-(4-(6-fluoroindole-3-yl)-1,2,3,6-tetrahydropyridin-1-yl)pent-1-yl)piperazine] had a melting point of 69 to 71 °C.

For `COc1ccccc1N1CCN(CCNCCCN2CC=C(c3c[nH]c4cc(Cl)ccc34)CC2)CC1` [Example 7, N-(2-(4-(2-methoxyphenyl)piperazin-1-yl)eth-1-yl)-N-3-(4-(6-chloroindol-3-yl)-1,2,3,6-tetrahydropyridin-1-yl)prop-1-ylamine], the melting point lay within 71 to 73 °C.

In turn, `COc1ccccc1N1CCN(CCCCCN2CCC(c3c[nH]c4cc(F)ccc34)CC2)CC1` (as salt: hydrochloride) [Example 19, 1-(2-methoxyphenyl) -4-(5-(4-(6-fluoroindole-3-yl) -piperidin-1-yl)pent-1-yl)piperazine trihydrochloride] displayed a melting point of 113 to 115 °C.

In turn, `COc1ccccc1N1CCN(CCCCCCN2CC=C(c3c[nH]c4cc(F)ccc34)CC2)CC1` [Example 14, 1-(2-methoxyphenyl)-4-(6-(4-(6-fluoroindole-3-yl)-1,2,3,6-tetrahydropyridin-1-yl)hex-1-yl)piperazine] returned a melting point of 105 to 107 °C.

In the case of `COc1ccccc1N1CCN(CCNCCCN2CC=C(c3c[nH]c4cc(F)ccc34)CC2)CC1` [Example 6, N-(2-(4-(2-methoxyphenyl)piperazin-1-yl)eth-1-yl)-N3-(4-(6-fluoroindol-3-yl)-1,2,3,6-tetrahydropyridin-1-yl)prop-1-ylamine], the melting point lay within 82 to 84 °C.

`COc1ccccc1N1CCN(CCCCCN2CCC(c3c[nH]c4cc(Cl)ccc34)CC2)CC1` (as salt: hydrochloride) [Example 20, 1-(2-methoxyphenyl) -4-(5-(4-(6-chloroindole-3-yl) -piperidin-1-yl)pent-1-yl)piperazine trihydrochloride] returned a melting point of 139 to 141 °C.

For `COc1ccccc1N1CCN(CCCCCN2CC=C(c3c[nH]c4cc(Cl)ccc34)CC2)CC1` [Example 15, 1-(2-methoxyphenyl)-4-(5-(4-(6-chloroindole-3-yl)-1,2,3,6-tetrahydropyridin-1-yl)pent-1-yl)piperazine], the melting point lay in the range of 126 to 128 °C.

`COc1ccccc1N1CCN(CCNCCN2CC=C(c3c[nH]c4cc(Cl)ccc34)CC2)CC1` [Example 12, N-(2-(4-(2-methoxyphenyl)piperazin-1-yl)eth-1-yl), N-2-(4-(6-chloroindol-3-yl)-1,2,3,6-tetrahydropyridin-1-yl)eth-1-ylamine] gave a melting point of 78 to 80 °C.

On to `COc1ccccc1N1CCN(CCNCCCN2CCC(c3c[nH]c4cc(Cl)ccc34)CC2)CC1` (as salt: hydrochloride) [Example 10, N-(2-(4-(2-methoxyphenyl)piperazin-1-yl)eth-1-yl)-N-3-(4-(6-chloroindol-3-yl)-piperidin-1-yl)prop-1-ylamine tetrahydrochloride], for which the melting point is 91 to 95 °C.

Consider `COc1ccccc1N1CCN(CCNC(=O)CCN2CC=C(c3c[nH]c4cc(Cl)ccc34)CC2)CC1` [Example 2, N-(2-(4-(2-methoxyphenyl)piperazin-1-yl)eth-1-yl)-3-(4-(6-chloroindol-3-yl)-1,2,3,6-tetrahydropyridin-1-yl)propanamide], for which the melting point was in the range of 181 to 183 °C.

For the compound `COc1ccccc1N1CCN(CCCCCCN2CCC(c3c[nH]c4cc(F)ccc34)CC2)CC1` (as salt: hydrochloride) [Example 22, 1-(2-methoxyphenyl)-4-(6-(4-(6-fluoroindol-3-yl)-piperidin-1-yl)hex-1-yl)piperazine trihydrochloride], the melting point was in the range of 145 to 147 °C.

On to `COc1ccccc1N1CCN(CCNC(=O)CCN2CC=C(c3c[nH]c4cc(F)ccc34)CC2)CC1` [Example 1, N-(2-(4-(2-methoxyphenyl)piperazin-1-yl)eth-1-yl)-3-(4-(6-fluoroindol-3-yl)-1,2,3,6-tetrahydropyridin-1-yl)propanamide], for which the melting point fell in the range of 175 to 177 °C.

Regarding `COc1ccccc1N1CCN(CCCCCCN2CCC(c3c[nH]c4cc(Cl)ccc34)CC2)CC1` (as salt: hydrochloride) [Example 21, 1-(2-methoxyphenyl)-4-(6-(4-(6-chloroindol-3-yl)-piperidin-1-yl)hex-1-yl)piperazine trihydrochloride], the melting point fell in the range of 185 to 187 °C.
